What was measured:
Assay type in all cases: in vivo, rat
[1] = tested on: male rats; assay: Penile erection study in male rats after oral administration (responding rats, ED50, erection episodes, penile erection index); conditions: for responding rats, # / responding rats, %: 10 rats tested, 2 h observation; for copulation mounting behaviour: 0.0781-0.625 mg/kg
Method: The purpose of this study was to compare the biological activity of compound 7a with that of sildenafil. In particular, the respective ED50 -value (ED=effective dose), erection episodes and penile erection indices of said compounds in the treatment of male rats were determined. The penile erection index is an established means of determining the erection promoting properties of a substance (see e.g. Ang, H. H., Sim, M. K., Pharm. Sci., 3, 117-119 (1997) and references cited therein).
In these experiments, the compounds 7a and sildenafil were administered to male rats orally. The doses used for both drugs were 0.0781, 0.1562, 0.3125 and 0.625 mg/kg body weight. Sildenafil was dissolved in distilled water, whereas 7a was dissolved in 1% HCl solution (aq). Control animals were administered with the vehicles only, i.e. distilled water or the 1% HCl solution. During the experiments, the rats were placed in glass cages for observation and had access to food and water. During 2 h after administration of the investigated compounds, the penile erection of the rats was monitored.

[2] = tested on: rats; assay: Preliminary toxicity studies in rats
Method: (§1) Moreover, according to preliminary toxicity studies in rats, the compound 7a is tolerated up to a dose of about […] body weight without any detrimental effects. […] Thus, high doses of 7a provide a particularly efficient means for treatment of erectile dysfunction.

[3] = Preliminary toxicity studies in rats; conditions: rat, in vivo, read-out: tolerated dose without any detrimental effects
Method: as §1

**Q.** For `CCCc1nn(C)c2c(=O)[nH]c(-c3cc(S(=O)(=O)N4CCN(C)CC4)cc4c3OCC4)nc12` [Compound 7a, 5-[2,3-dihydro-5-(4-methylpiperazin-1-ylsulfonyl)-7-benzofuryl]-1-methyl-3-propyl-6,7-dihydro-1H-pyrazolo[4,3-d]pyrimidin-7-one], which “responding rats, #” value ([1]; dose 0.0781 mg/kg oral) is on record?
**A.** The value was 3 #.

**Q.** And the “responding rats, %” value ([1]; dose 0.0781 mg/kg oral)?
**A.** Its value is 30%.

**Q.** What about the “responding rats, #” value ([1]; dose 0.1562 mg/kg oral) of the same compound?
**A.** The value was 4 #.

**Q.** And the “responding rats, %” value ([1]; dose 0.1562 mg/kg oral)?
**A.** The value was 40%.

**Q.** And the “responding rats, #” value ([1]; dose 0.3125 mg/kg oral)?
**A.** The value was 4 #.

**Q.** What about the “responding rats, %” value ([1]; dose 0.3125 mg/kg oral) of the same compound?
**A.** The value was 40%.

**Q.** And the “responding rats, #” value ([1]; dose 0.6250 mg/kg oral)?
**A.** Its value is 8 #.

**Q.** What about the “responding rats, %” value ([1]; dose 0.6250 mg/kg oral) of the same compound?
**A.** The value was 80%.

**Q.** And the copulation mounting behaviour ([1]; male rats, oral)?
**A.** Its copulation mounting behaviour is “no copulation mounting behaviour was observed”.

**Q.** What about the “number of erection episodes and penile erection indices (in words)” value ([1]; male rats, oral, 7a vs sildenafil, FIGS. 1 and 2) of the same compound?
**A.** The value was “superior to sildenafil, especially at higher doses”.

**Q.** What about the “ED50 of 7a compared with sildenafil (in words)” value ([1]; male rats, oral, 7a vs sildenafil, 95% confidence interval) of the same compound?
**A.** Its value is “lower than that of sildenafil”.

**Q.** And the “toxicity and side-effects (in words)” value [2]?
**A.** Its value is “completely non-toxic and free from undesirable side-effects”.

**Q.** And the NOAEL [3]?
**A.** The NOAEL was about 0.35 mg/kg.

**Q.** Which “responding rats, #” value ([1]; dose 0.0781 mg/kg oral) does the source give for `CCCc1nn(C)c2c(=O)[nH]c(-c3cc(S(=O)(=O)N4CCN(C)CC4)ccc3OCC)nc12` [Sildenafil, reference compound] here?
**A.** Its value is 3 #.

**Q.** And the “responding rats, %” value ([1]; dose 0.0781 mg/kg oral)?
**A.** The value was 30%.

**Q.** And the “responding rats, #” value ([1]; dose 0.1562 mg/kg oral)?
**A.** The value was 3 #.

**Q.** What about the “responding rats, %” value ([1]; dose 0.1562 mg/kg oral) of the same compound?
**A.** Its value is 30%.

**Q.** What about the “responding rats, #” value ([1]; dose 0.3125 mg/kg oral) of the same compound?
**A.** Its value is 5 #.

**Q.** What about the “responding rats, %” value ([1]; dose 0.3125 mg/kg oral) of the same compound?
**A.** The value was 50%.

**Q.** What about the “responding rats, #” value ([1]; dose 0.6250 mg/kg oral) of the same compound?
**A.** The value was 7 #.

**Q.** And the “responding rats, %” value ([1]; dose 0.6250 mg/kg oral)?
**A.** The value was 70%.

**Q.** And the copulation mounting behaviour ([1]; male rats, oral)?
**A.** The copulation mounting behaviour was “no copulation mounting behaviour was observed”.

— patent publication US6242444A, “Compounds and pharmaceutical compositions containing the same” (The Jordanian Pharmaceutical Manufacturing and Medical …, priority 1999, dated 2001)
